Assay results reported in patent US8637499B2, “Benzoxazepines as inhibitors of PI3K/mTOR and methods of their use and manufacture” (Exelixis, Inc., priority 2009, dated 2014).

Tests used:
[1] = target: mTORC1 (mTOR/GbL/Raptor) (Homo sapiens, UniProt P42345); test: mTOR/GbL/Raptor (mTORC1) ELISA Assay; format: biochemical; conditions: 0.2 nM mTORC1, 10 μM ATP, 50 nM NHis-tagged 4E-BP1; phosphorylation of 4E-BP1; read-out: IC50
Method: mTOR/GbL/Raptor (mTORC1) ELISA Assay
The measurement of mTORC1 enzyme activity was performed in an ELISA assay format following the phosphorylation of 4E-BP1 protein. All experiments were performed in the 384-well format. Generally, 0.5 μL DMSO containing varying concentrations of the test compound was mixed with 15 μL enzyme solution. Kinase reactions were initiated with the addition of 15 μL of substrates-containing solution. The assay conditions were as follows; 0.2 nM mTORC1, 10 μM ATP and 50 nM NHis-tagged 4E-BP1 in 20 mM Hepes, pH 7.2, 1 mM DTT, 50 mM NaCl, 10 mM MnCl2, 0.02 mg/mL BSA, 0.01% CHAPS, 50 mM β-glycerophosphate. Following an incubation of 120 minutes at ambient temperature, 20 μL of the reaction volume was transferred to a Ni-Chelate-coated 384-well plate. The binding step of the 4E-BP1 protein proceeded for 60 minutes, followed by washing 4 times each with 50 μL of Tris-buffered saline solution (TBS). Anti-phospho-4E-BP1 rabbit-IgG (20 μL, 1:5000) in 5% BSA-TBST (0.2% Tween-20 in TBS) was added and further incubated for 60 minutes. Incubation with a secondary HRP-tagged anti-IgG was similarly performed after washing off the primary antibody (4 washes of 50 μL). Following the final wash step with TBST, 20 μL of SuperSignal ELISA Femto (Pierce Biotechnology) was added and the luminescence measured using an EnVision plate reader.

[2] = target: PI3Kα (Homo sapiens, UniProt P42336); test: PI3K Biochemical Assays (ATP consumption, luciferase-luciferin chemiluminescence); conditions: PI3Kα 1.5 nM, ATP 1 μM, PIP2 10 μM; percent of ATP consumed
Method: PI3Kα activity is measured as the percent of ATP consumed following the kinase reaction using luciferase-luciferin-coupled chemiluminescence. Reactions were conducted in 384-well white, medium binding microtiter plates (Greiner). Kinase reactions were initiated by combining test compounds, ATP, substrate (PIP2), and kinase in a 20 μL volume in a buffer solution. The standard PI3Kalpha assay buffer is composed 50 mM Tris, pH 7.5, 1 mM EGTA, 10 mM MgCl2, 1 mM DTT and 0.03% CHAPS. The standard assay concentrations for enzyme, ATP, and substrate are 1.5 nM, 1 μM, and 10 μM, respectively. The reaction mixture was incubated at ambient temperature for approximately 2 h. Following the kinase reaction, a 10 μL aliquot of luciferase-luciferin mix (Promega Kinase-Glo) was added and the chemiluminescence signal measured using a Victor2 plate reader (Perkin Elmer). Total ATP consumption was limited to 40-60% and IC50 values of control compounds correlate well with literature references. Substituting PI3Kα with PI3KIβ, […], or […], the inhibitory activity of the compounds for the other isoforms of I3K were measured.

Chain of PI3Kα (P42336 whole entry): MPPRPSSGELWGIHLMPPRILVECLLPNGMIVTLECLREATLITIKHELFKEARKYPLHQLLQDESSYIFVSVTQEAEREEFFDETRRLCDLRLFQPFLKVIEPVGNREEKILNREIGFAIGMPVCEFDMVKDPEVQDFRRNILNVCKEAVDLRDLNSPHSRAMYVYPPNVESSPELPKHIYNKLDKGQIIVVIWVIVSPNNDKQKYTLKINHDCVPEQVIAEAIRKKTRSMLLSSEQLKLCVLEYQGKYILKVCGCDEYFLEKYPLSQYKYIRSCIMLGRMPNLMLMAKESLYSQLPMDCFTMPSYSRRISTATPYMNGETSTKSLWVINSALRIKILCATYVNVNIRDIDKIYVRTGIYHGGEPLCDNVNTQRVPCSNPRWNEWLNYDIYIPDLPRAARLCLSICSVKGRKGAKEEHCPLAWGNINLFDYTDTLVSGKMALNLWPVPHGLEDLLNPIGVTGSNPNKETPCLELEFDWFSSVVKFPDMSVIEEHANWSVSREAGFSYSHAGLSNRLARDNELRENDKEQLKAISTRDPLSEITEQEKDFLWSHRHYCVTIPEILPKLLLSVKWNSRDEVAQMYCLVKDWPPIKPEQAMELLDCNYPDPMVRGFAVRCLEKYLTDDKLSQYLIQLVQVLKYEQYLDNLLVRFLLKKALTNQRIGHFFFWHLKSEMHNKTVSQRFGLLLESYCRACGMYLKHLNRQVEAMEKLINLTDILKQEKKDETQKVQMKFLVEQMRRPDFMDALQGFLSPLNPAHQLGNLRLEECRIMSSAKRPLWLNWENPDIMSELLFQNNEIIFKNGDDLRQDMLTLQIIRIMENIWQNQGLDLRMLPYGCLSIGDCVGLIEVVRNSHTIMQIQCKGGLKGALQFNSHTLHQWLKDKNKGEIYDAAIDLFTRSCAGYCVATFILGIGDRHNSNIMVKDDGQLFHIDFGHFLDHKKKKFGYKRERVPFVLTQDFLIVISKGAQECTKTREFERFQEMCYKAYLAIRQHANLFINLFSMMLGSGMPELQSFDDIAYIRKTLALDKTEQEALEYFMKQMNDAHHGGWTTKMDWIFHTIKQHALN
Chain of PI3Kα (P27986 whole entry partner): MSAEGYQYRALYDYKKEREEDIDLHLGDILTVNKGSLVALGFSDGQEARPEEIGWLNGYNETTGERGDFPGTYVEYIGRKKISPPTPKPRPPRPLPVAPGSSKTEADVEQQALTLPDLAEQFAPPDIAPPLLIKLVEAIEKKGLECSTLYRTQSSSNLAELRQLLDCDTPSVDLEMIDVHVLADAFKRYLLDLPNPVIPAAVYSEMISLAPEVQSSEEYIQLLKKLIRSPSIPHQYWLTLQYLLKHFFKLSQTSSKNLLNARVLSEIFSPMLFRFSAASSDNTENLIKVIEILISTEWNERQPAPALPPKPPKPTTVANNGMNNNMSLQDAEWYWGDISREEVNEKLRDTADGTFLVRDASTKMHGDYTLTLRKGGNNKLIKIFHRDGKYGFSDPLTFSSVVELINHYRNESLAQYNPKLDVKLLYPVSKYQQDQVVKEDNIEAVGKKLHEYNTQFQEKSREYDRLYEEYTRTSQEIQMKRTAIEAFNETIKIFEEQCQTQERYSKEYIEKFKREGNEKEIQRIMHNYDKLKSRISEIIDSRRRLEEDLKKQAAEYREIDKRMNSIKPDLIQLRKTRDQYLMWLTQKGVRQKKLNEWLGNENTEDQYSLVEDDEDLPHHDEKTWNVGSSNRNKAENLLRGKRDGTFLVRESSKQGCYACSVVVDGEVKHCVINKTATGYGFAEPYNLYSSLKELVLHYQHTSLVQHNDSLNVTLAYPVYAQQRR

COC(=O)Nc1nc2cc(-c3ccc4c(c3)CN(C(=O)N3CC[C@H](O)C[C@@H]3c3ccc(F)cc3)CCO4)ccc2[nH]1 (racemic) [Compound 17, (±)-methyl [5-(4-{[(2R,4S)-2-(4-fluorophenyl)-4-hydroxypiperidin-1-yl]carbonyl}-2,3,4,5-tetrahydro-1,4-benzoxazepin-7-yl)-1H-benzimidazol-2-yl]carbamate]
IC50 [1]: 700 to 2600 nM
IC50 [2]: 75 to 200 nM

Cc1nc2ccc(-c3ccc4c(c3)CN(C(=O)N3CC[C@@H]5CCCC[C@H]5C3)CCO4)cc2[nH]1 (racemic) [Compound 80, (±)-7-(2-methyl-1H-benzimidazol-6-yl)-4-[(4aS,8aR)-octahydroisoquinolin-2(1H)-ylcarbonyl]-2,3,4,5-tetrahydro-1,4-benzoxazepine]
IC50 [1]: 250 to 700 nM
IC50 [2]: 1000 to 3000 nM

CC1=C[C@H]2CN(C(=O)N3CCOc4ccc(-c5ccc6[nH]c(C)nc6c5)cc4C3)C[C@H]2C1 (racemic) [Compound 91, (±)-7-(2-methyl-1H-benzimidazol-5-yl)-4-{[(3aS,6aR)-5-methyl-3,3a,4,6a-tetrahydrocyclopenta[c]pyrrol-2(1H)-yl]carbonyl}-2,3,4,5-tetrahydro-1,4-benzoxazepine]
IC50 [1]: 50 to 250 nM
IC50 [2]: 200 to 500 nM

Cc1nc2cc(-c3ccc4c(c3)CN(C(=O)N3CC[C@](C)(O)C[C@@H]3c3ccccc3)CCO4)ccc2[nH]1 (racemic) [Compound 134, (±)-(2R,4S)-4-methyl-1-{[7-(2-methyl-1H-benzimidazol-5-yl)-2,3-dihydro-1,4-benzoxazepin-4(5H)-yl]carbonyl}-2-phenylpiperidin-4-ol]
IC50 [1]: 700 to 2600 nM
IC50 [2]: 1000 to 3000 nM

Cc1nc2ccc(-c3ccc4c(c3)CN(C(=O)N3CC[C@H](O)C[C@@H]3c3ccc(F)cc3)CCO4)cc2[nH]1 (racemic) [Compound 136, (±)-(2R,4S)-2-(4-fluorophenyl)-1-{[7-(2-methyl-1H-benzimidazol-6-yl)-2,3-dihydro-1,4-benzoxazepin-4(5H)-yl]carbonyl}piperidin-4-ol]
IC50 [1]: 50 to 250 nM
IC50 [2]: 500 to 1000 nM

Cc1nc2ccc(-c3ccc4c(c3)CN(C(=O)N3CC[C@H](O)C[C@@H]3c3ccc(F)c(F)c3)CCO4)cc2[nH]1 (racemic) [Compound 140, (±)-(2R,4S)-2-(3,4-difluorophenyl)-1-{[7-(2-methyl-1H-benzimidazol-6-yl)-2,3-dihydro-1,4-benzoxazepin-4(5H)-yl]carbonyl}piperidin-4-ol]
IC50 [1]: 50 to 250 nM
IC50 [2]: 200 to 500 nM

Cc1nc2ccc(-c3ccc4c(c3)CN(C(=O)N3CC[C@H](CF)C[C@@H]3c3ccc(F)c(F)c3)CCO4)cc2[nH]1 (racemic) [Compound 147, (±)-4-{[(2R,4S)-2-(3,4-difluorophenyl)-4-(fluoromethyl)piperidin-1-yl]carbonyl}-7-(2-methyl-1H-benzimidazol-6-yl)-2,3,4,5-tetrahydro-1,4-benzoxazepine]
IC50 [1]: 250 to 700 nM
IC50 [2]: 1000 to 3000 nM

Cc1nc2ccc(-c3ccc4c(c3)CN(C(=O)N3CC[C@@H](C#N)C[C@@H]3c3ccc(F)c(F)c3)CCO4)cc2[nH]1 (racemic) [Compound 148, (±)-(2R,4R)-2-(3,4-difluorophenyl)-1-{[7-(2-methyl-1H-benzimidazol-6-yl)-2,3-dihydro-1,4-benzoxazepin-4(5H)-yl]carbonyl}piperidine-4-carbonitrile]
IC50 [1]: 50 to 250 nM
IC50 [2]: 200 to 500 nM

COC(=O)Nc1nc2ccc(-c3ccc4c(c3)CN(C(=O)N3CCC(C)CC3)CCO4)cc2[nH]1 [Compound 2, methyl (6-{4-[(4-methylpiperidin-1-yl)carbonyl]-2,3,4,5-tetrahydro-1,4-benzoxazepin-7-yl}-1H-benzimidazol-2-yl)carbamate]
IC50 [1]: 50 to 250 nM
IC50 [2]: 200 to 500 nM

CC1CCN(C(=O)N2CCOc3ccc(-c4cnc(N)nc4)cc3C2)CC1 [Compound 3, 5-{4-[(4-methylpiperidin-1-yl)carbonyl]-2,3,4,5-tetrahydro-1,4-benzoxazepin-7-yl}pyrimidin-2-amine]
IC50 [1]: 700 to 2600 nM
IC50 [2]: 1000 to 3000 nM

CC(=O)Nc1ncc(-c2ccc3c(c2)CN(C(=O)N2CCC(C)CC2)CCO3)s1 [Compound 5, N-(5-{4-[(4-methylpiperidin-1-yl)carbonyl]-2,3,4,5-tetrahydro-1,4-benzoxazepin-7-yl}-1,3-thiazol-2-yl)acetamide]
IC50 [1]: 250 to 700 nM
IC50 [2]: 1000 to 3000 nM

O=C(N1CCC(C(F)(F)F)CC1)N1CCOc2ccc(-c3ccc(-c4ncc[nH]4)cc3)cc2C1 [Compound 7, 7-[4-(1H-imidazol-2-yl)phenyl]-4-{[4-(trifluoromethyl)piperidin-1-yl]carbonyl}-2,3,4,5-tetrahydro-1,4-benzoxazepine]
IC50 [1]: ≤ 50 nM
IC50 [2]: ≤ 75 nM

CC1CCN(C(=O)N2CCOc3ccc(-c4cncs4)cc3C2)CC1 [Compound 8, 4-[(4-methylpiperidin-1-yl)carbonyl]-7-(1,3-thiazol-5-yl)-2,3,4,5-tetrahydro-1,4-benzoxazepine]
IC50 [1]: 250 to 700 nM
IC50 [2]: 1000 to 3000 nM

Cc1nc2ccc(-c3ccc4c(c3)CN(C(=O)N3[C@@H]5CC[C@H]3C[C@@H](CO)C5)CCO4)cc2[nH]1 [Compound 112, (8-{[7-(2-methyl-1H-benzimidazol-6-yl)-2,3-dihydro-1,4-benzoxazepin-4(5H)-yl]carbonyl}-8-azabicyclo[3.2.1]oct-3-(endo)-yl)methanol]
IC50 [2]: 200 to 500 nM

Cc1nc2ccc(-c3ccc4c(c3)CN(C(=O)N3CCCCC3c3cc(C(F)(F)F)cc(C(F)(F)F)c3)CCO4)cc2[nH]1 (centres unmarked) [Compound 115, 4-({2-[3,5-bis(trifluoromethyl)phenyl]piperidin-1-yl}carbonyl)-7-(2-methyl-1H-benzimidazol-6-yl)-2,3,4,5-tetrahydro-1,4-benzoxazepine]
IC50 [2]: 1000 to 3000 nM

Cc1nc2ccc(-c3ccc4c(c3)CN(C(=O)N3CCC(O)(C(F)(F)F)CC3c3ccc(F)c(F)c3)CCO4)cc2[nH]1 (centres unmarked) [Compound 119, 2-(3,4-difluorophenyl)-1-{[7-(2-methyl-1H-benzimidazol-6-yl)-2,3-dihydro-1,4-benzoxazepin-4(5H)-yl]carbonyl}-4-(trifluoromethyl)piperidin-4-ol]
IC50 [2]: 1000 to 3000 nM

Cc1nc2ccc(-c3ccc4c(c3)CN(C(=O)N3CCOCC3)CCO4)cc2[nH]1 [Compound 132, 7-(2-methyl-1H-benzimidazol-6-yl)-4-(morpholin-4-ylcarbonyl)-2,3,4,5-tetrahydro-1,4-benzoxazepine]
IC50 [2]: 500 to 1000 nM

Cc1nc2ccc(-c3ccc4c(c3)CN(C(=O)N3CCN(C)CC3c3ccccc3)CCO4)cc2[nH]1 (centres unmarked) [Compound 144, 7-(2-methyl-1H-benzimidazol-6-yl)-4-[(4-methyl-2-phenylpiperazin-1-yl)carbonyl]-2,3,4,5-tetrahydro-1,4-benzoxazepine]
IC50 [2]: 1000 to 3000 nM

CCOC(=O)CN(Cc1ccccc1)C(=O)N1CCOc2ccc(-c3ccc4nc(C)[nH]c4c3)cc2C1 [Compound 151, ethyl N-{[7-(2-methyl-1H-benzimidazol-6-yl)-2,3-dihydro-1,4-benzoxazepin-4(5H)-yl]carbonyl}-N-(phenylmethyl)glycinate]
IC50 [2]: 1000 to 3000 nM

Cc1nc2ccc(-c3ccc4c(c3)CN(C(=O)N3CCN(C(=O)c5ccco5)CC3)CCO4)cc2[nH]1 [Compound 158, 4-{[4-(furan-2-ylcarbonyl)piperazin-1-yl]carbonyl}-7-(2-methyl-1H-benzimidazol-6-yl)-2,3,4,5-tetrahydro-1,4-benzoxazepine]
IC50 [2]: 1000 to 3000 nM

Cc1nc2ccc(-c3ccc4c(c3)CN(C(=O)N3CCN(c5ccc([N+](=O)[O-])cc5)CC3)CCO4)cc2[nH]1 [Compound 168, 7-(2-methyl-1H-benzimidazol-6-yl)-4-{[4-(4-nitrophenyl)piperazin-1-yl]carbonyl}-2,3,4,5-tetrahydro-1,4-benzoxazepine]
IC50 [2]: 200 to 500 nM

CC(=O)c1ccc(N2CCN(C(=O)N3CCOc4ccc(-c5ccc6nc(C)[nH]c6c5)cc4C3)CC2)cc1 [Compound 169, 1-[4-(4-{[7-(2-methyl-1H-benzimidazol-6-yl)-2,3-dihydro-1,4-benzoxazepin-4(5H)-yl]carbonyl}piperazin-1-yl)phenyl]ethanone]
IC50 [2]: 500 to 1000 nM
